Tests used:
[1] = test system: Neonatal rat myocardial cells (NRCM); assay: Cytoprotective effect against cytotoxicity induced by MeHg and hypotonic stimulation (LDH release assay); assay type: cell-based; details: 1 μM pretreatment 1 hour; 50 nM MeHg, 50% hypotonic solution, 2 days; compared with cilnidipine
Procedure: Neonatal rat myocardial cells (NRCM) were seeded at 2.0×10^5 cells/ml in Matrigel-coated 96-well plates. The NRCMs were pretreated by incubating for 1 hour at 37° C., 5% CO2 with 1 μM of each compound 16c and cilnidipine as a positive control, 1 hour before hypotonic stimulation. To provide hypotonic stimulation, the NRCMs were incubated in isotonic solutions (100% DMEM) or 50% hypotonic solutions (50% DMEM and 50% water) in the presence or absence of 50 nM MeHg that a non-neurotoxic concentration, at 37° C. and 5% CO2 for 2 days. Two days later, cytotoxicity was measured by an LDH release assay using a cytotoxic LDH assay kit (Dojindo).

[2] = test system: cardiomyocytes derived from neonatal rats; assay: Inhibitory effect on mitochondrial hyperfission by hypoxic stimulation; assay type: cell-based, rat; details: 0.3 μM, 1 hour preincubation, 18 hours hypoxic environment; compared with cilnidipine positive control
Procedure: A system for evaluating quantitatively the degree of mitochondrial division in cells was constructed. Specifically, cardiomyocytes derived from neonatal rats were cultured under either normoxia (20%) or hypoxia (1%) for 16 hours. Subsequently, the cells were stained with a fluorescent dye (MitoTracker Green FM, Thermo Fisher Scientific) that selectively stains mitochondria. Then, the mitochondria were observed under a fluorescence microscope, and the mitochondrial morphology was quantitatively measured by image analysis.
FIGS. 2(a) and (b) are each a micrograph and an image explaining a method for quantitatively measuring mitochondrial morphology by image analysis. FIG. 2(a) is a representative fluorescence micrograph showing the general morphology of mitochondria. FIG. 2(b) is an image obtained by filtering the photograph in FIG. 2(a) and extracting the shape of the mitochondria. Image analysis was performed based on the image in FIG. 2(b) to quantify the lengths of mitochondrial fragments. For the quantification, in order to classify the mitochondria into vesicle-shaped, intermediate-shaped and tube-shaped, <3.5 μm is set for vesicle-shaped, 3.6 μm<length<4.2 μm is set for intermediate-shaped, and >4.2 μm is set for tube-shaped, respectively, as thresholds.
The system for evaluation constructed in Test Example 1 was used to evaluate the mitochondrial hyperfission inhibitory effects of the compounds prepared in Examples.
Specifically, at first, each compound was added to the culture medium of cardiomyocytes derived from neonatal rats at a final concentration of 0.3 μM, and the mixture was incubated for 1 hour.
Then, each cells were cultured for an additional 18 hours in a hypoxic environment. Subsequently, mitochondria were stained with MitoTracker Green FM (Thermo Fisher Scientific) or anti-pyruvate dehydrogenase antibody (Abcam) and observed under a fluorescence microscope to quantitatively measure the morphology of mitochondria. For comparison, a group involving cilnidipine as a positive control and a group involving dimethyl sulfoxide (DMSO) as a negative control were also prepared.

[3] = test system: calcium channel; assay: Calcium antagonism (KCl-induced calcium ion influx, Fura 2-AM); assay type: cell-based, mouse; details: Neuro-2a cells; 0, 1, 10, 100 and 1,000 nM, 30 minutes; potassium chloride 60 mM
Procedure: The compounds prepared in Examples were evaluated for calcium channel blocking activity. Specifically, at first, Neuro-2a cells, mouse-derived neuroblastoma cell line, were cultured in a serum-free medium, and Fura 2-AM (Dojindo Laboratories) that is a calcium ion probe, was added to the medium so that it was taken up by the cells.
Subsequently, after replacing the medium with HEPES buffer (pH 7.4), each compound was each added at final concentrations of 0, 1, 10, 100 and 1,000 nM and the mixtures were incubated for 30 minutes.
Then, depolarization stimulation was applied with potassium chloride (final concentration 60 mM), and the influx of calcium ions into the cells was measured by fluorescence microscopy.
FIGS. 4(a) and (b) are graphs that illustrate the results of measurement of increase in intracellular calcium ion concentration induced by potassium chloride stimulation. Δratio on the vertical axis is expressed by formula (F1) below and represents a value that reflects the intracellular calcium ion concentration.
A ratio=(fluorescence intensity at fluorescence wavelength of 510 nm against an excitation wavelength of 340 nm)/(fluorescence intensity at fluorescence wavelength of 510 nm against an excitation wavelength of 380 nm) Formula (F1)

Compound: COCCOC(=O)C1=C(C)NC(C)=C(C(=O)Nc2cccc(C(=O)OC(C)(C)C)c2)C1c1ccccc1 (stereo not drawn) [Compound 16c, 2-Methoxyethyl 5-((3-(tert-butoxycarbonyl)phenyl)carbamoyl)-2,6-dimethyl-4-phenyl-1,4-dihydropyridine-3-carboxylate]
- cytoprotective effect against MeHg and hypotonic stimulation (LDH release) [1]: cytoprotective effects against MeHg and hypotonic stimulation similar to those of cilnidipine
- mitochondrial hyperfission inhibitory effect (percentage of cells with vesicle-shaped mitochondria) [2]: the same as or more effect of cilnidipine
- Ca2+ antagonism (increase in intracellular calcium ion concentration induced by potassium chloride stimulation) [3]: no Ca2+ antagonism

From US20240002343A1, “COMPOUNDS HAVING INHIBITORY EFFECT ON MITOCHONDRIAL HYPERFISSION” (KYUSHU UNIVERSITY, NATIONAL UNIVERSITY CORPORATION, priority 2020, published 2024)
